Literature values, collected in patent US20060083727A1, “Methods and compositions for the treatment of diseases characterized by calcification and/or plaque formation” (Nanobac Pharmaceuticals, Inc., priority 2004, published 2006).

Test system: NB/CNP
Settings: background statement

O=C(O)CN(CCN(CC(=O)O)CC(=O)O)CC(=O)O [EDTA, Ethylenediaminetetraacetic acid]
Effect on protective biofilm secreted by NB/CNP: can assist in dissolving the protective biofilm

Penicillin
Killing / sensitivity of NB/CNP: cannot be killed
